Each structure is given as a SMILES string. Values joined by “and” are separate entries in the source; they are usually repeats but may differ in a detail not shown here. Identical values can stand only once.

Assay [1] has as its target SBD2 within the tandem SBD1-2 (Lactococcus lactis, UniProt Q9CES5). Nature of the assay: Isothermal titration calorimetry, SBD2 site of tandem SBD1-2. The format is binding. The conditions noted are these: ITC. On the procedure:
(§1) ITC experiments were performed as described previously. Briefly, the purified SBDs were dialysed overnight against 50 mM KPi (pH 6.0), 1 mM EDTA and 1 mM NaN3. Isothermal titration experiments were carried out using an ITC-200 (MicroCal, GE Healthcare, Buckinghamshire, UK). For these experiments, the substrate was prepared in the dialysis buffer to minimize mixing effects. All experiments were carried out at 25°C and a mixing rate of 1000 r.p.m. The concentration of SBD1 and SBD2 and associated tandem mutants varied between 20 and 100 µM during the experiment, depending on the expected KD of the protein under investigation. For titration experiments with asparagine typically the concentration of ligand in the syringe was 8–10× the concentration in the cell. […] The recorded data was approximated by a one- respectively two-site binding model and fitted using the nonlinear curve-fitting tool provided by ORIGIN 8 (Origin Lab Corp., Northhampton, MA) to describe the molar enthalpy change ΔH for protein–ligand complex formation, the stoichiometry n and the corresponding association constant KA. […] The molar entropy change ΔS was calculated from ΔG = ΔH − TΔS. […] For analysing the glutamine binding to SBD1-Δ5-SBD2, which features two binding sites, we first determined the parameters for the single site using the conditions of asparagine binding to SBD1. […]

Assay [2] has as its target SBD1 of GlnPQ (isolated domain). Set-up: method as in PMID 23994008. The settings on record: ITC; cited from earlier work. Background: Isothermal titration calorimetry measures the heat released or taken up as one component is titrated into another.
Assay [3] relates to tandem SBD1-2 wild-type protein. In words: Differential scanning calorimetry, thermostability of tandem with ligand. The settings on record: DSC; unliganded 59°C. The format is binding, Lactococcus lactis. On the procedure:
Furthermore, we verified the stability of the proteins using differential scanning calorimetry (DSC) by analysing thermostability and potential differences in folding of wild-type SBD1-2 and linker mutants (figure 6b,c; electronic supplementary material, table S7). In the unliganded state, the melting temperature of both single SBDs was 59°C [41], which is the same for all tandem SBD1-2 mutants. The addition of either asparagine or glutamine increased the protein stability of the tandem resulting in a higher melting temperature of approximately 62°C for SBD1 and greater than or equal to 69°C for SBD2. […] We assign the peak shifts to a specific SBD by comparing the melting temperatures of the tandem SBD1-2 to that of the single SBDs. […] We find that linker deletions of 5 and 8 amino acids increase the stability of the proteins by 2–3°C. Maximal stabilization of SBD2 in SBD1-2 tandems is observed in the presence of glutamine, […] (figure 6c).
To determine the proteins thermal stability, DSC experiments were performed as described previously. Briefly, the purified SBDs were dialysed overnight against the DSC working buffer, i.e. 50 mM KPi (pH 7.0), 150 mM KCl, 1 mM EDTA and 1 mM NaN3. DSC experiments with working buffer solutions containing 4 µM of an SBD-mutant and 5 mM substrate were conducted on a VP-DSC Calorimeter (MicroCal, GE Healthcare, Buckinghamshire). The melting temperature Tm was determined by ORIGIN 8 (Origin Lab Corp, Northampton, MA).

For assay [4], the target named is SBD1 within the tandem SBD1-2 (Lactococcus lactis, UniProt Q9CES5). Nature of the assay: Isothermal titration calorimetry, SBD1 site of tandem SBD1-2. The conditions noted are these: SBD1 within tandem SBD1-2; ITC, 25°C, pH 6.0. Type of assay: binding. On the procedure:
as §1

For assay [5], the target named is SBD2 of GlnPQ (isolated domain). Set-up: method as in PMID 23994008. The settings on record: ITC; cited from earlier work.

Sequence of SBD1 within the tandem SBD1-2 (Q9CES5 entry or part of it): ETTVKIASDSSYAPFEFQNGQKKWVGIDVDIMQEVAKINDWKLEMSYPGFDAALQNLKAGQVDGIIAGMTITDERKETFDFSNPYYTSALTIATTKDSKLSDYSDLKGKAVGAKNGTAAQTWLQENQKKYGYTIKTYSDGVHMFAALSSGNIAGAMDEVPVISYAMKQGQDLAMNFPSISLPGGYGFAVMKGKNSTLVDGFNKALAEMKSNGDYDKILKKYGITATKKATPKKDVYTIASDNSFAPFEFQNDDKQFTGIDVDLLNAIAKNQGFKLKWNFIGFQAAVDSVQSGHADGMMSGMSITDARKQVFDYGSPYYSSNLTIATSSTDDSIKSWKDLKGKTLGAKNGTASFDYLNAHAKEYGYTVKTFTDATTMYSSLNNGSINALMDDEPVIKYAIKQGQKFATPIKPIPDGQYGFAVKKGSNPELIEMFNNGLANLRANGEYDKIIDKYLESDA
Sequence of SBD2 within the tandem SBD1-2 (Q9CES5 entry or part of it): as above

As usually defined, the Kd is the free concentration of one partner at which half of the binding sites on the other are occupied at equilibrium, for simple one-to-one binding. As to `NC(=O)CC[C@H](N)C(=O)O` [glutamine], the Kd in assay [1] (SBD2 within tandem SBD1-2, SBD1 blocked with 1 mM asparagine) is 900 nM; in assay [1] (SBD2 within tandem SBD1-2, no asparagine, 25°C, pH 6.0), 600 ± 200 nM; in assay [2], 90000 nM; in assay [4] it was 180000 nM and ~100000 nM; in assay [5], ~900 nM. Besides, in assay [3], the “melting temperature of SBD1 in the tandem after addition of ligand” value was “approximately 62 °C”. The “melting temperature of SBD2 in the tandem after addition of ligand” value in assay [3] is “greater than or equal to 69 °C”.
Take `NC(=O)C[C@H](N)C(=O)O` [asparagine]: in assay [2], the Kd was 200 nM. In assay [3], the “melting temperature of SBD1 in the tandem after addition of ligand” value was “approximately 62 °C” and the “melting temperature of SBD2 in the tandem after addition of ligand” value is “greater than or equal to 69 °C”. Further, in assay [4], the Kd turned out to be 400 ± 100 nM.

The record behind these values is publication PMC8025302, “Structural and biophysical characterization of the tandem substrate-binding domains of the ABC importer GlnPQ” (Open Biology, 2021).
